Consider two compounds from patent publication US8202540B1, “Method for controlled production of ultrafine microparticles and nanoparticles” (Abbott GmbH & Co., KG, priority 1999, dated 2012).

SMILES strings stand for the structures.

Holding throughout (type): physicochemical
Data set [1] is described as follows: Average particle diameter determined by light microscopy. The following applies: Example 14: propylene glycol, 0.2% Tween 80; 700 bar, room temperature, 30 minutes, degassed medium, nitrogen. The source says:
10% tragacanth was dispersed in Miglyol 812 with addition of 1% Span 80 and microparticles prepared as described in example 1. The average diameter determined by light microscopy was 7.54 μm after 10 cycles at 1500 bar.
Preparation of a Clinical Batch Under Oxygen-Poor Conditions and protective gassing: azodicarbonamide (1) was dispersed with addition of Tween 80 (0.2%) analogously to example 12 in 2 kg propylene glycol and homogenized (homogenization pressure: 700 bar, room temperature) in a cyclical process for 30 minutes with a Micron LAB 60 (APV Deutschland GmbH, Lubeck, Germany). Propylene glycol was degassed beforehand by heating. The product container was kept under nitrogen. The average diameter determined by light microscopy was 5.45 μm after 30 minutes' homogenization time.

Data set [2] can be described thus: Particle size by laser diffractometry (LD, Coulter LS230).
A short description of data set [3]: Particle size by photon correlation spectroscopy (PCS, Zetasizer 4). The following applies: Example 2: anhydrous glycerol, 20 cycles at 1500 bar. The text has this:
The characterization of the superfine microparticle dispersions and nanoparticles was by means of laser diffractometry (LD) (Coulter LS230, Coulter Electronics, Miami, USA) and photon correlation spectroscopy (PCS) (Zetasizer 4, Malvern Instruments, Malvern, United Kingdom). Characterization parameters were the 50% (D50%), 90% (D90%) and 95% (D95%) LD diameter measured by LD. The PCS (measurement range approx. 3 nm-3 μm) gives the PCS diameter and, as a measure of the width of the distribution, the polydispersity index (PI) in the range from 0.000 (+ideal monodispersion) to 0.500 (very broad distribution), above 0.5 no further conclusions can be drawn with regard to the width of distribution.

[4] abbreviates: Example 12: 10% in PEG 400, 0.5% Tween 80, 4 cycles at 1500 bar.
The mark [5] stands for this setting: Example 1: 1% drug, 0.5% Tween 80, anhydrous glycerol, 6 cycles at 1500 bar, room temperature.
[6] abbreviates: Example 3: anhydrous glycerol, 10 cycles at 1500 bar.
Setting [7] is: Example 3: purely aqueous dispersion (glycerol replaced by water), 10 cycles at 1500 bar.
[8] abbreviates: Example 6: 1.0% water, 4 cycles at 1500 bar.
Where [9] appears, read: Example 6: anhydrous (0% water), 4 cycles at 1500 bar.
Where [10] appears, read: Example 7: 10% water, 4 cycles at 1500 bar.
[11] abbreviates: Example 7: 30% water, 4 cycles at 1500 bar.
Setting [12] is: Example 8: 50% water, 4 cycles at 1500 bar.
Setting [13] is: Example 13: 10 cycles at 1500 bar.

`NC(=O)N=NC(N)=O` [azodicarbonamide]: in data set [1], the “average diameter determined by light microscopy” value worked out at 5.45 μm. In data set [2] (setting [4]), this compound showed a 50% diameter of 3.0 μm, a D90% of 6.2 μm and a D95% of 7.2 μm.
Turning to `CC1CN(c2nc(N(CCO)CC(C)(C)O)c3nc(-c4ccccc4)c(N4CC(C)OC(C)C4)nc3n2)CC(C)O1` (stereo not drawn) [drug from example 1, 1-[[2,7-bis(2,6-dimethyl-4-morpholinyl)-6-phenyl-4-pteridinyl]-(2-hydroxyethyl)-amino]-2-methyl-[cis[cis]]-propan-2-ol], the “average PCS diameter” value in data set [3] amounted to 950 nm. Besides, the “polydispersity index (PI)” value in data set [3] is reported as 0.513. In data set [2] (setting [5]), the “D50% LD diameter” value is 1.7 μm. Moreover, the “D90% LD diameter” value in data set [2] (setting [5]) was 4.5 μm. Further, the “D95% LD diameter” value in data set [2] (setting [5]) is recorded as 5.4 μm. Further, the D50% diameter is 1.3 μm in data set [2] (setting [6]); 0.9 μm in data set [2] (setting [7]); 2.1 μm in data set [2] (setting [8]); 1.9 μm in data set [2] (setting [9]); 1.7 μm in data set [2] (setting [10]); 1.7 μm in data set [2] (setting [11]). The compound also yielded a D50% diameter in data set [2] (setting [12]) of 1.5 μm. Besides, the D90% diameter in data set [2] (setting [6]) was 3.2 μm; in data set [2] (setting [7]), 2.3 μm; in data set [2] (setting [8]), 5.4 μm; in data set [2] (setting [9]), 4.9 μm; in data set [2] (setting [10]), 4.1 μm; in data set [2] (setting [11]) it was 4.2 μm. The D90% diameter in data set [2] (setting [12]) stood at 3.7 μm. The 95% diameter is listed as 3.9 μm in data set [2] (Example 13: 0% water (pure glycerol), 10 cycles at 1500 bar) and 2.8 μm in data set [2] (Example 13: pure water, 10 cycles at 1500 bar). Further, the “D50% across dispersion media of 0% to 100% water” value in data set [2] (setting [13]) is on record as “little change”. Besides, the “difference in 95% diameter, pure glycerol vs pure water” value in data set [2] (setting [13]) is “approx. 1.1 μm”. Also, the “difference in D95%, 2 cycles vs 10 cycles” value in data set [2] (Example 13: pure glycerol (0% water), 1500 bar) is “approx. 3.1 μm”. Further, in data set [2] (Example 13: pure glycerol (0% water), after 2 cycles at 1500 bar), the D95% was 7.0 μm.
